Test results taken from patent US20240115654A1, “INTRAVENOUS ADMINISTRATION OF ENGINEERED ANTIMICROBIAL AMPHIPHILIC PEPTIDES” (priority 2021, published 2024).
Read-outs that look alike come from different tables or passages of the source. Peptide text beside a SMILES is read from it.

Text: All subjects who met eligibility criteria were confined to the clinical research unit from […] through Day 3. At admission, physical examination, vital signs, 12 lead ECG and weight were obtained, medical and medication history were updated if necessary, safety blood tests (hematology and chemistry), urinalysis, urine drug screen and an alcohol breath test were repeated and a urine pregnancy test was done for women of childbearing potential.
At each dose level, there were 2 sentinel subjects, (1 active, 1 placebo), who were dosed at least 48 hours in advance of the other subjects in their respective group. Following review of safety data, including physical examination, vital signs, and review of adverse events from the first 2 subjects, enrolment in the cohort continued.
A 12-lead ECG was performed on Day 1, within 60 minutes of infusion start (in triplicate), mid-way through the infusion, at the completion of the infusion, 30 minutes after completion of the infusion and at various timepoints following the end of the infusion.
Vital signs were recorded within 60 minutes pre-dose, at the mid-point of the infusion and post dose vitals were assessed at completion of the infusion, 0.5, 1, 2, 3, 4, 6, 9, 12, 24 and 48 hours post dose, after at least 3 minutes of rest in supine position.
Subjects returned to the study center 7 days after dosing, for the termination visit. A full physical examination, vital signs and weight were obtained, concomitant medications were updated if necessary, safety blood specimens (haematology and chemistry, PT and aPTT) and urine were collected for urinalysis and urine drug screening. A serum pregnancy test was done for women of childbearing potential and a 12-lead ECG was performed.
In this study dose limiting toxicity (DLT) was defined as any drug related ≥Grade 3 AEs occurring despite optimal therapeutic interventions (which included but were not limited to allergic/hypersensitivity reactions, dermatological reactions/infusion site reactions, haematological toxicities such as neutropenia, thrombocytopenia and anaemia and clinical chemistry abnormalities) experienced up to Day 7 (Termination Visit).
(§1) All subjects who received any amount of study drug were included in the safety analysis (Safety population).
The study was a double blinded, randomized, placebo-controlled study. The placebo administered was 0.9% sodium chloride.
On Day 1 (day of dosing), subjects were randomly assigned either peptide IV or Placebo IV. At each dose level, there were 2 sentinel subjects, (1 active, 1 placebo), who were dosed at least 48 hours in advance of the other subjects in their respective group. Following review of safety data, including physical examination, vital signs, and review of adverse events from the first 2 subjects, enrolment in the cohort continued. All subjects who met eligibility criteria were confined to the clinical research unit from Day −2 through Day 3. At admission, physical examination, vital signs, 12 lead ECG and weight were obtained, medical and medication history were updated if necessary, safety blood tests (hematology and chemistry), urinalysis, urine drug screen and an alcohol breath test were repeated and a urine pregnancy test was done for women of childbearing potential.
as §1

[1] = Cohort 1: 0.05 mg/kg IV 1-hr infusion (N = 6)
[2] = Cohort 1: 0.05 mg/kg IV 1 hour infusion, subject 001-S008
[3] = Cohort 4 0.05 mg/kg IV 2-hr infusion, participant 001-S086
[4] = Cohort 4: 0.5 mg/kg IV 2-hr infusion (N = 6)

CC(C)[C@H](NC(=O)[C@H](Cc1c[nH]c2ccccc12)NC(=O)[C@H](CCCNC(=N)N)NC(=O)[C@H](CCCNC(=N)N)NC(=O)[C@@H](NC(=O)[C@@H](NC(=O)[C@H](CCCNC(=N)N)NC(=O)[C@@H](NC(=O)[C@@H](NC(=O)[C@H](CCCNC(=N)N)NC(=O)[C@H](CCCNC(=N)N)NC(=O)[C@H](Cc1c[nH]c2ccccc12)NC(=O)[C@@H](NC(=O)[C@H](CCCNC(=N)N)NC(=O)[C@H](CCCNC(=N)N)NC(=O)[C@@H](NC(=O)[C@H](CCCNC(=N)N)NC(=O)[C@H](CCCNC(=N)N)NC(=O)[C@@H](NC(=O)[C@H](Cc1c[nH]c2ccccc12)NC(=O)[C@H](CCCNC(=N)N)NC(=O)[C@@H](N)CCCNC(=N)N)C(C)C)C(C)C)C(C)C)C(C)C)C(C)C)C(C)C)C(C)C)C(=O)N[C@@H](CCCNC(=N)N)C(=O)N[C@@H](CCCNC(=N)N)C(N)=O [SEQ ID NO: 1] (H-RRWVRRVRRVWRRVVRVVRRWVRR-NH2)
4: IRRs, events (Cohort 4, 0.5 mg/kg over 2 hours in 250 mL, all Grade 1, no study drug interruption) | One Related TEAE, m [4] | Participants With At Least 1 Treatment-Related TEAE, occurrences m [4] | TEAE by system organ class: Injury, Poisoning, and Procedural Complications, occurrences m [4]
3 (50.0%): Number of Participants Reporting at least: One Related TEAE, n (%) [4] | Participants With At Least 1 Treatment-Related TEAE, n (%) [4] | TEAE by system organ class: Injury, Poisoning, and Procedural Complications, participants n (%) [4]
0: TEAE Severity Grade 2, n (%) [1] | TEAE by system organ class: Blood and Lymphatic System Disorders, participants n (%) [1] | TEAE by system organ class: Infections and Infestations, participants n (%) [1] | TEAE by system organ class: Musculoskeletal and Connective Tissue Disorders, participants n (%) [1] | TEAE by system organ class: Respiratory, Thoracic, and Mediastinal disorders, participants n (%) [1] | TEAE by system organ class: Skin and Subcutaneous Tissue Disorders, participants n (%) [1] | TEAE by system organ class: Vascular Disorders, participants n (%) [1] | TEAE severity Grade 2, participants n (%) [1] | TEAE severity Grade 3, participants n (%) [1] | TEAE severity Grade 4, participants n (%) [1] | TEAE severity Grade 5, participants n (%) [1] | Treatment-related TEAE: Abdominal distension, participants n (%) [1] | Treatment-related TEAE: Blood and Lymphatic System Disorders, participants n (%) [1] | Treatment-related TEAE: Constipation, participants n (%) [1] | Treatment-related TEAE: Diarrhea, participants n (%) [1] | Treatment-related TEAE: Dizziness, participants n (%) [1] | Treatment-related TEAE: Feeling hot, participants n (%) [1] | Treatment-related TEAE: Gastrointestinal Disorders, participants n (%) [1] | Treatment-related TEAE: Headache, participants n (%) [1] | Treatment-related TEAE: Infusion related reaction, participants n (%) [1] | Treatment-related TEAE: Infusion site discomfort, participants n (%) [1] | Treatment-related TEAE: Infusion site pain, participants n (%) [1] | Treatment-related TEAE: Infusion site reaction, participants n (%) [1] | Treatment-related TEAE: Infusion site swelling, participants n (%) [1] | Treatment-related TEAE: Injury, Poisoning, and Procedural Complications, participants n (%) [1] | Treatment-related TEAE: Macule, participants n (%) [1] | Treatment-related TEAE: Musculoskeletal and Connective Tissue Disorders, participants n (%) [1] | Treatment-related TEAE: Myalgia, participants n (%) [1] | Treatment-related TEAE: Nervous system disorders, participants n (%) [1] | Treatment-related TEAE: Oropharyngeal pain, participants n (%) [1] | Treatment-related TEAE: Orthostatic hypotension, participants n (%) [1] | Treatment-related TEAE: Phlebitis, participants n (%) [1] | Treatment-related TEAE: Respiratory, Thoracic, and Mediastinal disorders, participants n (%) [1] | Treatment-related TEAE: Skin and Subcutaneous Tissue Disorders, participants n (%) [1] | Treatment-related TEAE: Thrombocytopenia, participants n (%) [1] | Treatment-related TEAE: Vascular Disorders, participants n (%) [1] | Treatment-related TEAE: Vessel puncture site pain, participants n (%) [1] | Treatment-related TEAE: Vomiting, participants n (%) [1] | Number of Participants Reporting at least: One Dose-Limiting Toxicity, n (%) (Cohort 2: […] IV 1-hr infusion (N = 6)) | Number of Participants Reporting at least: One Dose-Limiting Toxicity, n (%) (Cohort 3: […] IV 1-hr infusion (N = 5)) | Number of Participants Reporting at least: One Dose-Limiting Toxicity, n (%) (Cohort 3b: […] IV 2-hr infusion (N = 6)) | Number of Participants Reporting at least: Onc TEAE Leading to Study Withdrawal, n (%) [4] | Number of Participants Reporting at least: One Dose-Limiting Toxicity, n (%) [4] | Number of Participants Reporting at least: One Serious TEAE, n (%) [4] | Number of Participants Reporting at least: One TEAE Leading to Study Drug Discontinuation, n (%) [4] | Number of Participants Reporting at least: One TEAE with Common Terminology Criteria for Adverse Events (CTCAE) Toxicity ≥ Grade 3, n (%) [4] | TEAE by system organ class: Blood and Lymphatic System Disorders, participants n (%) [4] | TEAE by system organ class: Respiratory, Thoracic, and Mediastinal disorders, participants n (%) [4] | TEAE by system organ class: Vascular Disorders, participants n (%) [4] | TEAE severity Grade 3, participants n (%) [4] | TEAE severity Grade 4, participants n (%) [4] | TEAE severity Grade 5, participants n (%) [4] | Treatment-related TEAE: Blood and Lymphatic System Disorders, participants n (%) [4] | Treatment-related TEAE: Constipation, participants n (%) [4] | Treatment-related TEAE: Dizziness, participants n (%) [4] | Treatment-related TEAE: Feeling hot, participants n (%) [4] | Treatment-related TEAE: Headache, participants n (%) [4] | Treatment-related TEAE: Infusion related reaction, participants n (%) [4] | Treatment-related TEAE: Infusion site discomfort, participants n (%) [4] | Treatment-related TEAE: Infusion site pain, participants n (%) [4] | Treatment-related TEAE: Infusion site swelling, participants n (%) [4] | Treatment-related TEAE: Injury, Poisoning, and Procedural Complications, participants n (%) [4] | Treatment-related TEAE: Macule, participants n (%) [4] | Treatment-related TEAE: Musculoskeletal and Connective Tissue Disorders, participants n (%) [4] | Treatment-related TEAE: Myalgia, participants n (%) [4] | Treatment-related TEAE: Nervous system disorders, participants n (%) [4] | Treatment-related TEAE: Oropharyngeal pain, participants n (%) [4] | Treatment-related TEAE: Orthostatic hypotension, participants n (%) [4] | Treatment-related TEAE: Phlebitis, participants n (%) [4] | Treatment-related TEAE: Respiratory, Thoracic, and Mediastinal disorders, participants n (%) [4]
1 (16.7%): Participants With At Least 1 Treatment-Related TEAE, n (%) [1] | TEAE by system organ class: Gastrointestinal Disorders, participants n (%) [1] | TEAE by system organ class: General Disorders and Administration Site Conditions, participants n (%) [1] | Treatment-related TEAE: General Disorders and Administration Site Conditions, participants n (%) [1] | Treatment-related TEAE: Vessel puncture site erythema, participants n (%) [1] | TEAE by system organ class: Gastrointestinal Disorders, participants n (%) [4] | TEAE by system organ class: Infections and Infestations, participants n (%) [4] | TEAE by system organ class: Nervous System Disorders, participants n (%) [4] | Treatment-related TEAE: Abdominal distension, participants n (%) [4] | Treatment-related TEAE: Diarrhea, participants n (%) [4] | Treatment-related TEAE: Gastrointestinal Disorders, participants n (%) [4] | Treatment-related TEAE: Infusion site reaction, participants n (%) [4]
Day 1/6 hours: Infusion related reaction: End Date/Time [2]
15: One TEAE, m [4] | Participants With At Least 1 TEAE, occurrences m [4]
3 (30.0%): TEAE by system organ class: Injury, Poisoning, and Procedural Complications, participants n (%) [1]
Grade 1: Infusion related reaction: Severity Grade [2] | Severity of event: Localized IRR at right arm and shoulder ache [3] | Severity of event: Myalgia [3]
6 (100%): Number of Participants Reporting at least: One TEAE, n (%) [4] | Participants With At Least 1 TEAE, n (%) [4] | TEAE Severity Grade 1, n (%) [4] | TEAE severity Grade 1, participants n (%) [4]
2: TEAE by system organ class: Nervous System Disorders, occurrences m [1] | TEAE by system organ class: Gastrointestinal Disorders, occurrences m [4] | TEAE by system organ class: General Disorders and Administration Site Conditions, occurrences m [4] | TEAE by system organ class: Musculoskeletal and Connective Tissue Disorders, occurrences m [4] | Treatment-related TEAE: Gastrointestinal Disorders, occurrences m [4] | Treatment-related TEAE: General Disorders and Administration Site Conditions, occurrences m [4]
2 (33.3%): TEAE by system organ class: Nervous System Disorders, participants n (%) [1] | TEAE Severity Grade 2, n (%) [4] | TEAE by system organ class: General Disorders and Administration Site Conditions, participants n (%) [4] | TEAE by system organ class: Musculoskeletal and Connective Tissue Disorders, participants n (%) [4] | TEAE by system organ class: Skin and Subcutaneous Tissue Disorders, participants n (%) [4] | TEAE severity Grade 2, participants n (%) [4] | Treatment-related TEAE: General Disorders and Administration Site Conditions, participants n (%) [4]
1: Participants With At Least 1 Treatment-Related TEAE, occurrences m [1] | TEAE by system organ class: Gastrointestinal Disorders, occurrences m [1] | TEAE by system organ class: General Disorders and Administration Site Conditions, occurrences m [1] | Treatment-related TEAE: General Disorders and Administration Site Conditions, occurrences m [1] | Treatment-related TEAE: Vessel puncture site erythema, occurrences m [1] | TEAE by system organ class: Infections and Infestations, occurrences m [4] | TEAE by system organ class: Nervous System Disorders, occurrences m [4] | Treatment-related TEAE: Abdominal distension, occurrences m [4] | Treatment-related TEAE: Diarrhea, occurrences m [4] | Treatment-related TEAE: Infusion site reaction, occurrences m [4]
12: TEAE Severity Grade 1, m [4] | TEAE severity Grade 1, occurrences m [4]
5 (83.3%): TEAE Severity Grade 1, n (%) [1] | TEAE severity Grade 1, participants n (%) [1]
7: Participants With At Least 1 TEAE, occurrences m [1] | TEAE Severity Grade 1, m [1] | TEAE severity Grade 1, occurrences m [1]
3: TEAE by system organ class: Injury, Poisoning, and Procedural Complications, occurrences m [1] | participants with IRRs (Cohort 4, 0.5 mg/kg over 2 hours in 250 mL) | TEAE Severity Grade 2, m [4] | TEAE by system organ class: Skin and Subcutaneous Tissue Disorders, occurrences m [4] | TEAE severity Grade 2, occurrences m [4]
